{"source": "paper PMC11451537", "about": "“P2X7 receptors exhibit at least three modes of allosteric antagonism” (Science Advances, 2024)", "assay_type_in_all_cases": "cell-based", "key": {"hP2X1": {"target": "T1, hP2X1 (Homo sapiens, UniProt P51575)", "T1 construct": "The hP2X1-WT, hP2X2-WT, hP2X3-WT, hP2X4-WT, and hP2X7-WT constructs used for electrophysiology are similarly unmodified full-length, wild-type receptor constructs; expressed in transfected cells; host or cells: Xenopus laevis oocytes injected with mRNA made from pcDNA3.1x", "T1 sequence (P51575 1-399)": "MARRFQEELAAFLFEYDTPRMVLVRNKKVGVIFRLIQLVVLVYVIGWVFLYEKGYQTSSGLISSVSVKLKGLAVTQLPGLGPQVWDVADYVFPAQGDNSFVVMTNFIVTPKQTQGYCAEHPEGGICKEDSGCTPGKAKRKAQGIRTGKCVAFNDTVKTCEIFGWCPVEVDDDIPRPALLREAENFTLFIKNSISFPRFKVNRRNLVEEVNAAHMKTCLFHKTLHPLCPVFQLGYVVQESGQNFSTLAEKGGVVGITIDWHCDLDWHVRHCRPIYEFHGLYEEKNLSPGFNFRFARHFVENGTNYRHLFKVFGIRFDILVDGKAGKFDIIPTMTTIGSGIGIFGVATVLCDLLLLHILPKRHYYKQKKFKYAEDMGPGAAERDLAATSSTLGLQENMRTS", "assay": "TEVC inhibition dose-response (IC50), hP2X1 in Xenopus laevis oocytes", "conditions": "10 μM ATP, mean ± SD, triplicate", "description": "(§1) To evaluate the inhibitory response of an antagonist for a dilution series, an initial excitatory signal was evoked at a subtype-specific concentration of ATP. Next, the antagonist was applied at a test concentration for 60 s and then coapplied at the same test concentration of the antagonist with the identical subtype-specific concentration of ATP. The antagonized signal was then normalized against the preceding excitatory signal evoked by ATP for each individual oocyte tested. The pre- and post-antagonist signals were evoked by 10 μM ATP for hP2X1, 10 μM ATP for hP2X2, 1 μM ATP for hP2X3, 50 μM ATP for hP2X4, and 100 μM ATP for P2X7. For the K297V mutation in rP2X7, pre- and post-antagonist signals were evoked by 300 μM ATP. Each dataset was then fit to a nonlinear regression named “[inhibitor] vs. response – Variable slope (four parameters)” in GraphPad Prism 9 to produce a sigmoidal curve and afford an IC50 value. Each singular condition was used to generate an average which is reported plus or minus its SD between three discrete trials."}, "hP2X2": {"target": "T2, hP2X2 (Homo sapiens, UniProt Q9UBL9)", "T2 construct": "The hP2X1-WT, hP2X2-WT, hP2X3-WT, hP2X4-WT, and hP2X7-WT constructs used for electrophysiology are similarly unmodified full-length, wild-type receptor constructs; expressed in transfected cells; host or cells: Xenopus laevis oocytes injected with mRNA made from pcDNA3.1x", "T2 sequence (Q9UBL9 1-471)": "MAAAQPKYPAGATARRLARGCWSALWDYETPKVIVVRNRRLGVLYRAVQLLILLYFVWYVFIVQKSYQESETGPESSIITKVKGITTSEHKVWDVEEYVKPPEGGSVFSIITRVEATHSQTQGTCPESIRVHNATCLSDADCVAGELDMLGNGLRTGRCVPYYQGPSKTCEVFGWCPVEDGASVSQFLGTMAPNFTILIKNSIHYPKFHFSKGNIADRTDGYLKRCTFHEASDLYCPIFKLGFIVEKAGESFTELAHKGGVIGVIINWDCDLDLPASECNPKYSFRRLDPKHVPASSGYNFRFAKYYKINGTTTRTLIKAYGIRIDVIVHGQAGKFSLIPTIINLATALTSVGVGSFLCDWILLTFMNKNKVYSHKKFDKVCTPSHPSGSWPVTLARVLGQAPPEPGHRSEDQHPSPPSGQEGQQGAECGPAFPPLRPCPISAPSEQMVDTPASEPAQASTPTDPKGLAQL", "assay": "TEVC inhibition dose-response (IC50), hP2X2 in Xenopus laevis oocytes", "conditions": "10 μM ATP, mean ± SD, triplicate", "description": "as §1"}, "hP2X3": {"target": "T3, hP2X3 (Homo sapiens, UniProt P56373)", "T3 construct": "The hP2X1-WT, hP2X2-WT, hP2X3-WT, hP2X4-WT, and hP2X7-WT constructs used for electrophysiology are similarly unmodified full-length, wild-type receptor constructs; expressed in transfected cells; host or cells: Xenopus laevis oocytes injected with mRNA made from pcDNA3.1x", "T3 sequence (P56373 1-397)": "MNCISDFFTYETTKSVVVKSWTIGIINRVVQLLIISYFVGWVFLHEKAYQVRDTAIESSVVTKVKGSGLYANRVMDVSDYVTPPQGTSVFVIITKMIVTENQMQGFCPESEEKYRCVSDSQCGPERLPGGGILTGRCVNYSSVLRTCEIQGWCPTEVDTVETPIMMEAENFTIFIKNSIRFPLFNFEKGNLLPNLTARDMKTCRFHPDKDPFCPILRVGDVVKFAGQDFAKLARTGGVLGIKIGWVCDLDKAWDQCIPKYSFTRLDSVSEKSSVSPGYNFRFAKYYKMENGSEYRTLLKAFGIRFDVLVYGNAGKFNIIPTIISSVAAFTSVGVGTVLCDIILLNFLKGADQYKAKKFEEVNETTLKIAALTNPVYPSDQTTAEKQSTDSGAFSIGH", "assay": "TEVC inhibition dose-response (IC50), hP2X3 in Xenopus laevis oocytes", "conditions": "1 μM ATP, mean ± SD, triplicate", "description": "as §1"}, "hP2X7": {"target": "T4, hP2X7 (Homo sapiens, UniProt Q99572)", "T4 sequence (Q99572 1-595)": "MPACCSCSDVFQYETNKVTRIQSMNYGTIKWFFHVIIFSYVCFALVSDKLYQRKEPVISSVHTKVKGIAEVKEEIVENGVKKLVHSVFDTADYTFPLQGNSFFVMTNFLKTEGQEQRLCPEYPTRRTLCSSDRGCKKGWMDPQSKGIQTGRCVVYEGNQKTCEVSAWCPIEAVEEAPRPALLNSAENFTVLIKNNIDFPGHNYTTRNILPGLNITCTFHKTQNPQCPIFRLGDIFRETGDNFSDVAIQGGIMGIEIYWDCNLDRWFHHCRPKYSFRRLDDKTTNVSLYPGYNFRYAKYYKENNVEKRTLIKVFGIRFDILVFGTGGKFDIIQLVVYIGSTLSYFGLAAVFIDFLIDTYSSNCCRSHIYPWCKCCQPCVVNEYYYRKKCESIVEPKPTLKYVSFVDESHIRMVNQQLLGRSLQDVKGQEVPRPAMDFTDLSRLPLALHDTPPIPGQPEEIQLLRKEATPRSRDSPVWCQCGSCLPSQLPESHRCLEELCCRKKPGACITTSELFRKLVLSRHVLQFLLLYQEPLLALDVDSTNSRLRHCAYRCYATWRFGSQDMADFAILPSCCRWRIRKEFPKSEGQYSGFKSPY", "assay": "TEVC recovery of current after complete inhibition (IC100), hP2X7", "parameters": "hP2X7-WT constructs used for electrophysiology are similarly unmodified full-length, wild-type receptor constructs; expressed in transfected cells; host or cells: Xenopus laevis oocytes injected with mRNA made from pcDNA3.1x", "conditions": "120 s buffer wash, 100 μM ATP", "description": "Experiments were run in triplicate."}}, "data": [{"smiles": "O=S(=O)(O)c1ccc(N=C2C=CC(=C(c3ccc(Nc4ccc(S(=O)(=O)O)cc4)cc3)c3ccc(Nc4ccc(S(=O)(=O)O)cc4)cc3)C=C2)cc1", "note": "[methyl blue]", "values": [{"measurement": "IC50", "setting": "hP2X1", "value": "0.4 ± 0.1", "unit": "µM"}, {"measurement": "IC50", "setting": "hP2X2", "value": "13 ± 2", "unit": "µM"}, {"measurement": "IC50", "setting": "hP2X3", "value": "4 ± 1", "unit": "µM"}, {"measurement": "Recovery of activation (% of baseline current)", "setting": "hP2X7; hP2X7, 40-s IC100 application", "value": "34 ± 3", "unit": "%"}, {"measurement": "Recovery of activation (% of baseline current)", "setting": "hP2X7; hP2X7, 120-s IC100 application", "value": "17 ± 6", "unit": "%"}, {"measurement": "Recovery of activation (% of baseline current)", "setting": "hP2X7; hP2X7, 240-s IC100 application", "value": "2 ± 1", "unit": "%"}]}]}
